Test results reported in US20230137092A1, “Composition and Method for the Treatment and Prevention of Cardiac, Pulmonary, Dermal, and Renal Fibrosis” (EMERALD HEALTH PHARMACEUTICALS INC., priority 2020, published 2023).

Test system: hICF cells
Experiment: Real-time PCR of IL1b, IL6, Col1A2 and CCL2 mRNA in hICF
Assay type: cell-based, human
Settings: induced by Ang II or TGFb in hICF cells
Procedure: hICF (5×10^4 cells/cm^2) were preincubated with Compound of Formula (VIII), stimulated with Ang II for either 2 hours or 24 hours and total RNA was extracted using High Pure Isolation Kit (Roche Diagnostic, Switzerland). Total RNA (1 μg) was retrotranscribed using the iScript™ cDNA Synthesis Kit (Bio-Rad) and the cDNA analyzed using a CFX96 Real-Time PCR Detection System (Bio-Rad) by real-time PCR using the iQ™ SYBR Green Supermix (Bio-Rad). Human HPRT was used for in vitro studies to standardize the mRNA expression levels in each sample. Expression levels were calculated using the 2-ΔΔCt method. Compound of Formula (VIII) inhibited the mRNA expression of IL1b, IL6, Col1A2 and CCL2, induced by Ang II or TGFb in hICF cells (FIG. 17).

C=C(C)C1CCC(C)=C[C@H]1C1=C(O)C(=O)C(CCCCC)=C(NCc2ccccc2)C1=O (stereo partly shown) [Formula (VIII)]
inhibited: CCL2 mRNA expression | Col1A2 mRNA expression | IL1b mRNA expression | IL6 mRNA expression
